According to the supplement of paper PMC10307832:

Key:
Assay in all cases: relative viability (nuclei count vs DMSO), 5 days (fraction); higher = more cells survive
Motesanib + Luminespib = compound: CC1(C)CNc2cc(NC(=O)c3cccnc3NCc3ccncc3)ccc21 [Motesanib] + CCNC(=O)c1noc(-c2cc(C(C)C)c(O)cc2O)c1-c1ccc(CN2CCOCC2)cc1 [Luminespib] (partner 0.01 µM)
Procedure, shortened: (§1)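 Dosing by pin tool came one day after lung cancer cell lines were seeded in 1536-well plates, using either one drug or a fixed anchor-drug dose plus five library-drug doses (not always all listed) in √10 steps. After 5 days, nuclei were counted on 4× images. Relative viability is treated-well nuclei count divided by vehicle-well nuclei count, and values are medians of duplicate plates.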

Motesanib + Olaparib = compound: CC1(C)CNc2cc(NC(=O)c3cccnc3NCc3ccncc3)ccc21 [Motesanib] + O=C(c1cc(Cc2n[nH]c(=O)c3ccccc23)ccc1F)N1CCN(C(=O)C2CC2)CC1 [Olaparib] (partner 8 µM)
Procedure, shortened: as §1

[1] = compound: C[C@@]1(C(=O)Nc2ccc(F)nc2)CCCN1c1nc(Nc2cc(C3CC3)n[nH]2)c2cccn2n1 + CS(=O)(=O)N1CCN(Cc2cc3nc(-c4cccc5[nH]ncc45)nc(N4CCOCC4)c3s2)CC1 [Pictilisib] (partner 1 µM)
Procedure, shortened: as §1

[2] = compound: C[C@@]1(C(=O)Nc2ccc(F)nc2)CCCN1c1nc(Nc2cc(C3CC3)n[nH]2)c2cccn2n1 + NC(=O)Nc1cc(-c2cccc(F)c2)sc1C(=O)N[C@H]1CCCNC1 [AZD7762] (partner 0.2 µM)
Procedure, shortened: as §1

| Cell Line | relative viability (Motesanib + Luminespib; first compound 0.01 µM) | relative viability (Motesanib + Luminespib; first compound 0.03162 µM) | relative viability (Motesanib + Luminespib; first compound 0.1 µM) | relative viability (Motesanib + Luminespib; first compound 0.3162 µM) | relative viability (Motesanib + Luminespib; first compound 1 µM) | relative viability (Motesanib + Olaparib; first compound 0.01 µM) | relative viability (Motesanib + Olaparib; first compound 0.03162 µM) | relative viability (Motesanib + Olaparib; first compound 0.1 µM) | relative viability (Motesanib + Olaparib; first compound 0.3162 µM) | relative viability (Motesanib + Olaparib; first compound 1 µM) | relative viability ([1]; first compound 0.04 µM) | relative viability ([1]; first compound 0.1265 µM) | relative viability ([1]; first compound 0.4 µM) | relative viability ([1]; first compound 1.265 µM) | relative viability ([2]; first compound 0.04 µM) | relative viability ([2]; first compound 0.1265 µM) | relative viability ([2]; first compound 0.4 µM) | relative viability ([2]; first compound 1.265 µM) |
| --- | --- | --- | --- | --- | --- | --- | --- | --- | --- | --- | --- | --- | --- | --- | --- | --- | --- | --- |
| NCI-H2170 | 0.628 | 0.726 | 0.39 | 0.734 | 0.645 | 0.694 | 0.656 | 0.599 | 0.61 | 0.684 | 0.243 | 0.212 | 0.188 | 0.243 | 0.836 | 0.864 | 0.744 | 0.791 |
| NCI-H460 | 0.0344 | 0.0382 | 0.0342 | 0.0458 | 0.0311 | 0.413 | 0.396 | 0.484 | 0.446 | 0.402 | 0.299 | 0.202 | 0.184 | 0.236 | 0.737 | 0.667 | 0.609 | 0.649 |
| HCC-15 | 0.33 | 0.38 | 0.314 | 0.278 | 0.545 | 0.632 | 0.74 | 0.739 | 0.702 | 0.724 | 0.715 | 0.573 | 0.747 | 0.745 | 1.07 | 1.18 | 1.25 | 1.13 |
| ABC-1 | 0.637 | 0.867 | 0.556 | 0.716 | 0.866 | 0.895 | 0.66 | 0.58 | 1.15 | 0.869 | 0.598 | 0.6 | 0.467 | 0.394 | 0.833 | 0.595 | 0.643 | 0.593 |
| LCLC-103H | 0.92 | 0.92 | 0.996 | 1.04 | 0.98 | 0.777 | 0.737 | 0.758 | 0.807 | 0.742 | 0.501 | 0.497 | 0.366 | 0.441 | 0.7 | 0.748 | 0.6 | 0.691 |
| NCI-H441 | 0.274 | 0.314 | 0.333 | 0.302 | 0.269 | 0.542 | 0.452 | 0.436 | 0.627 | 0.496 | 0.455 | 0.337 | 0.36 | 0.375 | 1.07 | 0.651 | 0.528 | 0.856 |
| EPLC-272H | 0.302 | 0.268 |  | 0.233 | 0.266 | 0.779 | 1.33 | 0.759 | 0.689 | 0.745 | 0.251 | 0.18 | 0.168 | 0.174 | 0.215 | 0.187 | 0.212 | 0.164 |
